Reference: patent US20220079915A1, “IMMUNOSUPPRESSIVE PHARMACEUTICAL COMPOSITION AND APPLICATION THEREOF” (Shanghai Archeus Biotech Co., Ltd., priority 2018, published 2022)
Like-named read-outs stand apart in the source and are kept apart here.

Key:
TNF-α = assay: LPS-induced TNF-α secretion in THP-1 cells, ELISA of culture supernatant; type: cell-based, human; conditions: for TNF-α level, % of the positive control / TNF-α, % of the positive control level: 100 ng/mL LPS; for inhibition at 10 µM: Homo sapiens, THP-1; for TNF-α treatment value, A: relative to control, 5 μM
Protocol: 1) Recoveried and expanded THP-1 cells in a T75 culture flask. The growth medium was 10 milliliters of 10% fetal bovine serun/RPMI1640 (already containing 2 mM glutamine)/1% double antibiotics in each flask. Observed the cells under an invert microscope, and, when the cells were in the logarithmic growth phase, started the following drug treatment experiments; 2) Cultured 2*10e5/mL THP-1 cells in a 96-well culture plate with 100 microliters of growth medium (10% fetal bovine serum/RPMI640/1% double antibiotics) per well, and added 100 ng/ml PMA to incubate for 24 hour; 3) Eluted the non-adherent cells once with 300 microliters of fresh growth medium of 10% fetal bovine serum/RPMI1640/1% double antibiotics; 4) Added 200 microliters of growth medium of 10% fetal bovine serum/RPMI1640/1% double antibiotics, with/without test compound, to pre-incubate the cells at 37° C. for 2 hours; 5) Then added 100 ng/mL lipopolysaccharide (LPS) and incubated at 37° C. for 4 hours: 6) Collected 50 microliters of cell culture supernatant for the detection of the levels of related cytokines by enzyme-linked immunoassay, or stored it in a refrigerator at minus 80 degrees Celsius for future detection; 1) Prepared 1× elution buffer for enzyme-linked immunoassay. Prepared it with ultrapure water: 10× elution buffer mother solution=9:1 in volume ratio for use; 2) Prepared the antibody cocktail for enzyme-linked immunoassay. Prepared it with the antibody diluent (provided by Ab221825):antibody 1:antibody 2=18:1:1 in volume ratio for use. Antibody 1 was a TNF-α capture antibody and Antibody 2 was a TNF-α detector antibody. They were all supplied by kit Ab221825; 3) Prepared a series of concentration gradient samples of TNF-α standard with ultrapure water for the plotting of reaction standard curve and determining the linear range of detection signal; 4) Added 50 microliters of cell culture supernatant/standard and 50 microliters of the above antibody cocktail to a 96-well plate used for enzymatic reaction, sealed it with a film, placed it on a horizontal shaker, and incubated at 400 rpm for 1 hour at room temperature to allow the antibody-antigen complex was fully bound and coupled at the bottom of the well plate; 5) Discarded the supernatant, eluted with 350 microliters of 1× elution buffer/well for 3 times. In the last elution, put the well plate upside down on an absorbent paper and sucked and washed it thoroughly; 6) Added 100 microliters of TMB substrate solution (supplied by Ab221825) to each well, placed them on a horizontal shaker and incubated in the dark at room temperature for 5 minutes at a speed of 400 rpm; 7) Added 100 microliters of reaction stop solution (provided by Ab221825), placed on a horizontal shaker and mix at 400 rpm for 1 minute; 8) Detected the absorbance at 450 nm with a microplate reader.

[1] = test system: mouse spleen Naïve CD4+ T cells; assay: Compound cytotoxicity detection, lactate dehydrogenase (LDH) release; type: cell-based; conditions: 4 hours incubation; FIG. 9
Protocol: 1) Separated fresh spleens from adult C57BL/6 female mice (8-12 weeks old), and ground and filtered through a […] nylon cell strainer to obtain a single cell suspension in pre-cooled PBS; 2) Seeded primary CD4+ T cells in 96-well plate with a density of 1×10^5/90 μL. The medium was 1640 medium (serum-free); 3) Added the serially diluted compounds formulated in a volume of 10 μL to designated wells; 4) Incubated the cells for 4 hours at 37 degrees Celsius and 5% CO2; 5) Detected lactate dehydrogenase (LDH) release according to CytoTox-one Homogeneous Membrane Integrity Assay Kit instructions.

## C=C[C@@]1(C)CC(=O)C2(O)[C@@]3(C)C(O)CCC(C)(C)C3[C@H](OC(=O)CCN(C)C)[C@H](OC(C)=O)[C@@]2(C)O1.Cl (stereo partly drawn) [6-[3-(dimethylamino)propionyl]forskolin hydrochloride]
TNF-α; 5 μM alone, FIG. 4
  TNF-α level, % of the positive control: 33%
TNF-α; 5 μM alone, FIG. 6
  TNF-α, % of the positive control level: 58%
  reduction in TNF-α levels: 42%
TNF-α; 5 μM used alone, FIG. 4
  reduction in TNF-α level: 67%
TNF-α; 10 μM alone, FIG. 4
  TNF-α level, % of the positive control: 27%
TNF-α; 10 μM alone, FIG. 6
  TNF-α, % of the positive control level: 44%
TNF-α; 10 μM used alone, FIG. 4
  reduction in TNF-α level (inhibitory effect): 73%
TNF-α; 10 μM alone, FIG. 6, read-out: reduction in TNF-α levels (inhibitory effect)
  inhibition at 10 µM: 56%
TNF-α; 10 μM, 100 ng/ml LPS 4 hours, FIG. 1, read-out: inhibition of the TNF-α level of the positive control
  inhibition at 10 µM: ~75%
TNF-α; Table 3
  TNF-α treatment value, A: 33%
TNF-α; Table 4
  TNF-α treatment value, A: 58%
[1]
  toxicity to CD4+ T cells (lactate dehydrogenase release): not significantly toxic
